Results published in US4633014A, “Substituted 3-hydrazinopropionates” (priority 1983, dated 1986).

Key:
[1] = system: white mice; assay: in vivo
Description: (§1) The study of the effect provided by the compounds according to the present invention on the cardio-vascular system was carried out in experiments on white mice. The specific (antiarrhythmic) effect and acute toxicity were studied.
(§2) The acute toxicity of the compounds according to the present invention was determined in experiments on white mice with a mass of 20-25 g. The test compounds were administered intraperitoneally in the form of aqueous solutions or suspensions in Twin-80. Observation over the test animals was effected for 10 days.

[2] = in vivo; conditions: mouse, in vivo, ip
Description: as §1, §2

[3] = system: arrhythmia induced by an intravenous administration of calcium chloride; assay: Antiarrhythmic activity on a model of arrhythmia induced by intravenous calcium chloride (antagonism to calcium) in mice; type: in vivo; conditions: white mice, 20-40 minutes before
Description: The specific (antiarrhythmic) effect and acute toxicity were studied.
The antiarrhythmic activity of the compounds according to the present invention was studied on a model of arrhythmia induced by an intravenous administration of calcium chloride. In experiments on white mice of both sexes with a mass of 18-25 g narcotized by urethane (1,200 mg/kg intraperitoneally) ECG in the second standard lead was recorded. A 2% solution of calcium chloride was introduced into the tail vein at a constant rate (0.01 ml for 2 sec). The dose of calcium chloride causing arrhythmia and the dose causing the heart arrest were determined. In the test groups the test compounds were administered intraperitoneally 20-40 minutes before the beginning of the experiment.

COC(=O)CCN(C(N)=O)N(C)C [I-1, 3-(2,2-Dimethyl-1-carbamoylhydrazino)-methylpropionate]
Relative toxisity to quinidine ([1]; mouse, in vivo, ip, 14400 min): 13,3
LD50 at 240 h [2]: 2080 mg/kg
Dose of calcium chloride causing arrythmia in animals under experiment ([3]; intraperitoneal dose 5 mg/kg): 118,5 mg/kg
Dose of calcium chloride causing death in animals under experiment ([3]; intraperitoneal dose 5 mg/kg): 149,0 mg/kg
Dose of calcium chloride causing arrythmia in animals under experiment ([3]; intraperitoneal dose 15 mg/kg): 124,4 mg/kg
Dose of calcium chloride causing death in animals under experiment ([3]; intraperitoneal dose 15 mg/kg): 138,3 mg/kg

CNC(=O)N(CCC(=O)OC)N(C)C [I-2, 3-(2,2-Dimethyl-1-methylcarbamoylhydrazino)-methylpropionate]
Relative toxisity to quinidine ([1]; mouse, in vivo, ip, 14400 min): 14,7
LD50 at 240 h [2]: 2300 mg/kg
Dose of calcium chloride causing arrythmia in animals under experiment ([3]; intraperitoneal dose 5 mg/kg): 112,0 mg/kg
Dose of calcium chloride causing death in animals under experiment ([3]; intraperitoneal dose 5 mg/kg): 128,5 mg/kg
Dose of calcium chloride causing arrythmia in animals under experiment ([3]; intraperitoneal dose 15 mg/kg): 124,5 mg/kg
Dose of calcium chloride causing death in animals under experiment ([3]; intraperitoneal dose 15 mg/kg): 140,6 mg/kg

COC(=O)CCN(C(=O)Nc1ccccc1)N(C)C [I-3, 3-(2,2-dimethyl-1-phenylcarbamoylhydrazino)-methylpropionate]
Relative toxisity to quinidine ([1]; mouse, in vivo, ip, 14400 min): 8,6
LD50 at 240 h [2]: 1350 mg/kg
Dose of calcium chloride causing arrythmia in animals under experiment ([3]; intraperitoneal dose 5 mg/kg): 86,7 mg/kg
Dose of calcium chloride causing death in animals under experiment ([3]; intraperitoneal dose 5 mg/kg): 97,0 mg/kg
Dose of calcium chloride causing arrythmia in animals under experiment ([3]; intraperitoneal dose 25 mg/kg): 124,7 mg/kg
Dose of calcium chloride causing death in animals under experiment ([3]; intraperitoneal dose 25 mg/kg): 130,0 mg/kg

COC(=O)CCN(C(=O)Nc1ccc(NC(=O)N(CCC(=O)OC)N(C)C)cc1)N(C)C [I-4, 3-(2,2-dimethyl-1-p-/2-dimethylamino-2-methylpropionato-2'-yl-ureido-1-yl/anilinocarbanylhydrazino)-methylpropionate]
Relative toxisity to quinidine ([1]; mouse, in vivo, ip, 14400 min): 51,3
LD50 at 240 h [2]: 8000 mg/kg
Dose of calcium chloride causing arrythmia in animals under experiment ([3]; intraperitoneal dose 5 mg/kg): 86,0 mg/kg
Dose of calcium chloride causing death in animals under experiment ([3]; intraperitoneal dose 5 mg/kg): 110,0 mg/kg
Dose of calcium chloride causing arrythmia in animals under experiment ([3]; intraperitoneal dose 25 mg/kg): 103,7 mg/kg
Dose of calcium chloride causing death in animals under experiment ([3]; intraperitoneal dose 25 mg/kg): 115,0 mg/kg

CNC(=S)N(CCC(=O)OC)N(C)C [I-5, 3-(2,2-dimethyl-1-methylthiocarbamoylhydrazino)methylpropionate]
Relative toxisity to quinidine ([1]; mouse, in vivo, ip, 14400 min): 25,3
LD50 at 240 h [2]: 3950 mg/kg
Dose of calcium chloride causing arrythmia in animals under experiment ([3]; intraperitoneal dose 5 mg/kg): 87,5 mg/kg
Dose of calcium chloride causing death in animals under experiment ([3]; intraperitoneal dose 5 mg/kg): 100,5 mg/kg
Dose of calcium chloride causing arrythmia in animals under experiment ([3]; intraperitoneal dose 25 mg/kg): 127,3 mg/kg
Dose of calcium chloride causing death in animals under experiment ([3]; intraperitoneal dose 25 mg/kg): 131,4 mg/kg

C=CCNC(=S)N(CCC(=O)OC)N(C)C [I-6, 3-(2,2-dimethyl-1-allylthiocarbamoylhydrazino)methylpropionate]
Relative toxisity to quinidine ([1]; mouse, in vivo, ip, 14400 min): 20,5
LD50 at 240 h [2]: 3200 mg/kg
Dose of calcium chloride causing arrythmia in animals under experiment ([3]; intraperitoneal dose 5 mg/kg): 97,9 mg/kg
Dose of calcium chloride causing death in animals under experiment ([3]; intraperitoneal dose 5 mg/kg): 110,4 mg/kg
Dose of calcium chloride causing arrythmia in animals under experiment ([3]; intraperitoneal dose 25 mg/kg): 100,9 mg/kg
Dose of calcium chloride causing death in animals under experiment ([3]; intraperitoneal dose 25 mg/kg): 113,7 mg/kg

COC(=O)CCN(C(=S)Nc1ccccc1)N(C)C [I-7, 3-(2,2-dimethyl-1-phenylthiocarbamoylhydrazino)methylpropionate]
Relative toxisity to quinidine ([1]; mouse, in vivo, ip, 14400 min): 13,4
LD50 at 240 h [2]: 2100 mg/kg
Dose of calcium chloride causing arrythmia in animals under experiment ([3]; intraperitoneal dose 5 mg/kg): 132 mg/kg
Dose of calcium chloride causing death in animals under experiment ([3]; intraperitoneal dose 5 mg/kg): 135,6 mg/kg
Dose of calcium chloride causing arrythmia in animals under experiment ([3]; intraperitoneal dose 15 mg/kg): 107,5 mg/kg
Dose of calcium chloride causing death in animals under experiment ([3]; intraperitoneal dose 15 mg/kg): 138,0 mg/kg
Dose of calcium chloride causing arrythmia in animals under experiment ([3]; intraperitoneal dose 25 mg/kg): 90,0 mg/kg
Dose of calcium chloride causing death in animals under experiment ([3]; intraperitoneal dose 25 mg/kg): 113,0 mg/kg

CCOC(=O)CCN(C(=O)NC)N(C)C [I-8, 3-(2,2-dimethyl-1-methylcarbamoylhydrazino)-ethylpropionate]
Relative toxisity to quinidine ([1]; mouse, in vivo, ip, 14400 min): 11,9
LD50 at 240 h [2]: 1870 mg/kg
Dose of calcium chloride causing arrythmia in animals under experiment ([3]; intraperitoneal dose 5 mg/kg): 99,4 mg/kg
Dose of calcium chloride causing death in animals under experiment ([3]; intraperitoneal dose 5 mg/kg): 112,0 mg/kg
Dose of calcium chloride causing arrythmia in animals under experiment ([3]; intraperitoneal dose 25 mg/kg): 123,2 mg/kg
Dose of calcium chloride causing death in animals under experiment ([3]; intraperitoneal dose 25 mg/kg): 124,6 mg/kg

C=CCNC(=S)N(CCC(=O)OCC)N(C)C [I-9, 3-(2,2-dimethyl-1-allylthiocarbamoylhydrazino)ethylpropionate]
Relative toxisity to quinidine ([1]; mouse, in vivo, ip, 14400 min): 11,4
LD50 at 240 h [2]: 1780 mg/kg
Dose of calcium chloride causing arrythmia in animals under experiment ([3]; intraperitoneal dose 5 mg/kg): 91,8 mg/kg
Dose of calcium chloride causing death in animals under experiment ([3]; intraperitoneal dose 5 mg/kg): 107 mg/kg
Dose of calcium chloride causing arrythmia in animals under experiment ([3]; intraperitoneal dose 25 mg/kg): 104,8 mg/kg
Dose of calcium chloride causing death in animals under experiment ([3]; intraperitoneal dose 25 mg/kg): 116,5 mg/kg

CCOC(=O)CCN(C(=S)Nc1ccccc1)N(C)C [I-10, 3-(2,2-dimethyl-1-phenylthiocarbamoylhydrazino)ethylpropionate]
Relative toxisity to quinidine ([1]; mouse, in vivo, ip, 14400 min): 11,5
LD50 at 240 h [2]: 1800 mg/kg
Dose of calcium chloride causing arrythmia in animals under experiment ([3]; intraperitoneal dose 5 mg/kg): 102,0 mg/kg
Dose of calcium chloride causing death in animals under experiment ([3]; intraperitoneal dose 5 mg/kg): 108,8 mg/kg
Dose of calcium chloride causing arrythmia in animals under experiment ([3]; intraperitoneal dose 15 mg/kg): 115,8 mg/kg
Dose of calcium chloride causing death in animals under experiment ([3]; intraperitoneal dose 15 mg/kg): 125,7 mg/kg

COC(=O)C(C)CN(C(N)=O)N(C)C (centres unmarked) [I-11, 3-(2,2-dimethyl-1-carbamoylhydrazino)-2-methyl-methylpropionate]
Relative toxisity to quinidine ([1]; mouse, in vivo, ip, 14400 min): 11,8
LD50 at 240 h [2]: 1850 mg/kg
Dose of calcium chloride causing arrythmia in animals under experiment ([3]; intraperitoneal dose 5 mg/kg): 100,3 mg/kg
Dose of calcium chloride causing death in animals under experiment ([3]; intraperitoneal dose 5 mg/kg): 147 mg/kg
Dose of calcium chloride causing arrythmia in animals under experiment ([3]; intraperitoneal dose 15 mg/kg): 130,7 mg/kg
Dose of calcium chloride causing death in animals under experiment ([3]; intraperitoneal dose 15 mg/kg): 136,3 mg/kg

CNC(=O)N(CC(C)C(=O)OC)N(C)C (centres unmarked) [I-12, 3-(2,2-dimethyl-1-methylcarbamoylhydrazino)-2-methyl-methylpropionate]
Relative toxisity to quinidine ([1]; mouse, in vivo, ip, 14400 min): 8,1
LD50 at 240 h [2]: 1270 mg/kg
Dose of calcium chloride causing arrythmia in animals under experiment ([3]; intraperitoneal dose 5 mg/kg): 106,0 mg/kg
Dose of calcium chloride causing death in animals under experiment ([3]; intraperitoneal dose 5 mg/kg): 110,0 mg/kg
Dose of calcium chloride causing arrythmia in animals under experiment ([3]; intraperitoneal dose 15 mg/kg): 128,3 mg/kg
Dose of calcium chloride causing death in animals under experiment ([3]; intraperitoneal dose 15 mg/kg): 130,5 mg/kg

C=CCNC(=S)N(CC(C)C(=O)OC)N(C)C (centres unmarked) [I-13]
Relative toxisity to quinidine ([1]; mouse, in vivo, ip, 14400 min): 7,8
LD50 at 240 h [2]: 1230 mg/kg
Dose of calcium chloride causing arrythmia in animals under experiment ([3]; intraperitoneal dose 5 mg/kg): 117,3 mg/kg
Dose of calcium chloride causing death in animals under experiment ([3]; intraperitoneal dose 5 mg/kg): 136,5 mg/kg
Dose of calcium chloride causing arrythmia in animals under experiment ([3]; intraperitoneal dose 15 mg/kg): 126,0 mg/kg
Dose of calcium chloride causing death in animals under experiment ([3]; intraperitoneal dose 15 mg/kg): 138,0 mg/kg

COC(=O)C(C)CN(C(=S)Nc1ccccc1)N(C)C (centres unmarked) [I-14]
Relative toxisity to quinidine ([1]; mouse, in vivo, ip, 14400 min): 12,5
LD50 at 240 h [2]: 1960 mg/kg
Dose of calcium chloride causing arrythmia in animals under experiment ([3]; intraperitoneal dose 5 mg/kg): 96,4 mg/kg
Dose of calcium chloride causing death in animals under experiment ([3]; intraperitoneal dose 5 mg/kg): 114,1 mg/kg
Dose of calcium chloride causing arrythmia in animals under experiment ([3]; intraperitoneal dose 15 mg/kg): 85 mg/kg
Dose of calcium chloride causing death in animals under experiment ([3]; intraperitoneal dose 15 mg/kg): 101,0 mg/kg

CNC(=O)N(CCC(N)=O)N(C)C [I-15, 3-(2,2-dimethyl-1-methylcarbamoylhydrazino)-propionamide]
Relative toxisity to quinidine ([1]; mouse, in vivo, ip, 14400 min): 23
LD50 at 240 h [2]: 3600 mg/kg
Dose of calcium chloride causing arrythmia in animals under experiment ([3]; intraperitoneal dose 5 mg/kg): 97,8 mg/kg
Dose of calcium chloride causing death in animals under experiment ([3]; intraperitoneal dose 5 mg/kg): 109 mg/kg
Dose of calcium chloride causing arrythmia in animals under experiment ([3]; intraperitoneal dose 15 mg/kg): 100,7 mg/kg
Dose of calcium chloride causing death in animals under experiment ([3]; intraperitoneal dose 15 mg/kg): 108,5 mg/kg

CN(C)N(CCC(N)=O)C(=O)Nc1ccccc1 [I-16, 3-(2,2-dimethylamino-1-phenylcarbamoylhydrazino)propionamide]
Relative toxisity to quinidine ([1]; white mice, intraperitoneal, relative to quinidine): 5,9
LD50 at 240 h [2]: 925 mg/kg
Dose of calcium chloride causing arrythmia in animals under experiment ([3]; intraperitoneal dose 5 mg/kg): 92,0 mg/kg
Dose of calcium chloride causing death in animals under experiment ([3]; intraperitoneal dose 5 mg/kg): 115,3 mg/kg
Dose of calcium chloride causing arrythmia in animals under experiment ([3]; intraperitoneal dose 15 mg/kg): 102,5 mg/kg
Dose of calcium chloride causing death in animals under experiment ([3]; intraperitoneal dose 15 mg/kg): 125,0 mg/kg

CNC(=S)N(CCC(N)=O)N(C)C [I-17]
Relative toxisity to quinidine ([1]; mouse, in vivo, ip, 14400 min): 18,3
LD50 at 240 h [2]: 2850 mg/kg
Dose of calcium chloride causing arrythmia in animals under experiment ([3]; intraperitoneal dose 5 mg/kg): 87,5 mg/kg
Dose of calcium chloride causing death in animals under experiment ([3]; intraperitoneal dose 5 mg/kg): 138 mg/kg
Dose of calcium chloride causing arrythmia in animals under experiment ([3]; intraperitoneal dose 15 mg/kg): 102,0 mg/kg
Dose of calcium chloride causing death in animals under experiment ([3]; intraperitoneal dose 15 mg/kg): 115 mg/kg
